# Experimental data published in patent publication US8101158B1, “Methods for treating cerebrovascular disease comprising administering an agent that inhibits prokineticin receptor activity” (The Regents of the University of California, priority 2007, dated 2012).
# Entries after “also recorded” stand apart in the source; their conditions may differ.
# B1: PK2: secreted peptide ligand of G-protein coupled receptors PKR1 and PKR2 (protein, UniProt Q9HC23 28-129, looked up)
# Prokineticin-2: AVITGACDKDSQCGGGMCCAVSIWVKSIRICTPMGKLGDSCHPLTRKNNFGNGRQERRKRKRSKRKKEVPFFGRRMHHTCPCLPGLACLRTSFNRFICLAQK
# What was measured:
# [1] = Pharmacokinetic study, brain concentration; format: in vivo; settings: intraperitoneal injection of 60 mg/kg in rats
# Method: (§1) Via custom synthesis, 10 grams of one of the morpholine carboximide derivatives was obtained, with chemical name of (±)-4-Benzyl-N-(3,4-dihydro-2H-1,5-benzodioxepin-7-ylmethyl)-N-isobutylmorpholine-2-carboxamide, compound I (FIG. 5). Compound I was tested using the in vitro ischemia model. […] We utilized compound I as a parent compound to test the potential therapeutic effect of blocking PKR2 in cerebral ischemia models.
# [2] = test system: brain infarct in experimental stroke model; assay: Experimental stroke model, infarct volume after i.p. compound I; format: in vivo, rats; settings: 50 mg/kg i.p., 30 minutes pre-ischemia; n=5, p<0.05; listed as compound I
# Method: TTC staining and infarct quantification was performed as follows. 24 hours after reperfusion, rats were perfused with ice cold PBS and the brain was sectioned into 2 mm thickness. Brain sections were stained in 2,3,5 triphenyl tetrazolium chloride (TTC) solution for 15 minutes or until infarct was visible, followed by fixation with 4% PFA overnight. Next day the brain sections were aligned from rostral to caudal and brain sections were scanned. Infarct size and volume was quantitated using the software Image J. Infarct and cortex was outlined and measured using Image J. Percent infarct represents infarct area over entire cortex area. Percent volume was measured by multiplying the area by the section thickness (2 mm). Compound I reduced infarct size in ischemia models. The effect of compound I in experimental stroke models was tested. […] Compound I-treated rats had smaller infarct at almost every level.
# PKR2 = molecular target: T1, PKR2 (Homo sapiens, UniProt Q8NFJ6); assay: Antagonism of PK2-induced calcium influx (luminescence) in CHO cells stably expressing PKR2; format: cell-based; settings: luminescence (RLU), read-out: inhibition constant (Ki) for blocking activation of PKR2 by PK2
# T1 construct: expressed in transfected cells
# Method: FIG. 4 is a graphical representation showing the antagonistic effect of Compound I in Chinese Hamster Ovary cells that stably express PKR2. Dose-dependent response of PKR2 activation by PK2 in the presence of different concentrations of Compound I was measured with a luminometer. RLU is an index for calcium influx measurement for this luminescence-based assay. The dose-dependent calcium influx activated by PK2 was antagonized by Compound I. The inhibition constant obtained from this experiment was approximately 15 nM.
# as §1
# PK2 mRNA [3] = assay: PK2 mRNA in situ hybridization after pilocarpine-induced seizure; format: in vivo, mice; settings: CeA; for PK2 mRNA induction after pilocarpine in diazepam-pretreated animals: CA3 and dentate gyrus, diazepam prior to pilocarpine
# Method: (§2) All injections were administered through intraperitoneal injections (i.p.) Pilocarpine: to reduce muscarinic peripheral effects, all animals injected with pilocarpine were given 2 mg/kg of methylscopolamine (dissolved in saline 0.4 mg/ml) 30 minutes prior to injection. Pilocarpine-induced seizure was then initiated by injecting littermate mice (C57BL-6 or mix C57BL-6 with CD1) i.p. with (200 or 400 mg/kg) pilocarpine, respectively. Thereafter, animals were then assessed for seizure, as describe above, and sacrificed according to the following time course (30, 1 hr, 3 hrs, 6 hrs, 12 hrs, 36 hrs, 72 hrs). For groups within the pentylenetetrazol (metrazol, PTZ), mice were administered 75 mg/kg PTZ and subsequently monitored for 20 minutes. PTZ kindling were accomplished by administering 45 mg/kg PTZ every other day for 14 days. Animals that reach S5 on the first day were not included in the experiments. Each animal was injected and monitored for S5 seizure. Once S5 is reached, the animal was considered kindled, and was taken out of the injection regimen.
# (§3) In situ hybridization was done according to Cheng et al 2001. Antisense and sense riboprobes containing the 3′ UTR of mouse PK2 (GenBank accession number AF487279; residues 1147-2211), PKR1 (3′ UTR) and PKR2 (3′ UTR) were generated. […] Sections were then cut at 20-μm and processed for in situ as described by Winzer-Serhan et al. mRNA distributions from autoradiograms and emulsion-dipped sections were then analyzed and quantified with a system called MCID (Imaging Research). Calibration curve was generated by optical density versus radioactivity (disintegrations per minute (d.p.m.) per mg tissue wet weight) using 14 C standards. […]
# A time course analysis for PK2 mRNA induction and upregulation in the pilocarpine-induced seizure model was performed. A total of seven time points (30 minutes, 1 hr, 3 hrs, 6 hrs, 12 hrs, 36 hrs, and 72 hrs post pilocarpine injection) were analyzed. […]
# PKR2 mRNA = PKR2 mRNA in situ hybridization after pilocarpine-induced seizure; format: in vivo, mice
# Method: as §2, with “Animals that reach S5 on the first day were not included in the experiments.” left out, “Once S5 is reached, the animal was considered kindled, and was taken out of the injection regimen.” left out
# as §3, with “2001.” for “2001. Antisense and sense riboprobes containing the 3′ UTR of mouse PK2 (GenBank accession number AF487279; residues 1147-2211), PKR1 (3′ UTR) and PKR2 (3′ UTR) were generated.”
# PK2 mRNA [4] = assay: PK2 mRNA in situ hybridization in PTZ seizure model; format: in vivo, mice; settings: data not shown
# Method: as §2, with “Animals that reach S5 on the first day were not included in the experiments.” left out, “Once S5 is reached, the animal was considered kindled, and was taken out of the injection regimen.” left out
# as §3, with “2001.” for “2001. Antisense and sense riboprobes containing the 3′ UTR of mouse PK2 (GenBank accession number AF487279; residues 1147-2211), PKR1 (3′ UTR) and PKR2 (3′ UTR) were generated.”
# [5] = test system: locomotor running wheel activity; settings: PK2 0.3 nmol; cited from earlier work
# [6] = test system: brain infarct after distal MCAO; assay: Distal MCAO experimental stroke with ICV delivery of PK2, TTC infarct quantitation; format: in vivo, rats; settings: PK2 0.3 nmol ICV within one hour after reperfusion, 24 hr, n=5, p<0.001
# Method: Distal Middle Cerebral Artery Occlusion (dMCAO) was performed in the PK2 intracerebroventricular […] infusion study. Anesthesia induced by 5% isoflurane and maintained by 2-3% isoflurane. A ventral midline incision was made, and the two CCAs were isolated. […] were placed around the CCAs, and the animal was placed on its right side. A 2-cm vertical scalp incision was made midway between the left eye and ear. The temporalis muscle was bisected and a 2-mm burr hole was made at the junction of the zygomatic arch and squamous bone to expose the distal MCA. The dura was cut and the distal MCA was permanently electro-cauterized. The CCA were then occluded with clips for 1 hour, and the animals were sacrificed and perfused after 24 hr. PK2 (0.3 nmol) was stereotaxically infused prior or post-ischemia. […] Body temperature, ECG, and respiration rate were monitored every 15 minutes and kept in physiological ranges. […] TTC staining and infarct quantification was performed as follows. […] Infarct size and volume was quantitated using the software Image J. Infarct and cortex was outlined and measured using Image J. Percent infarct represents infarct area over entire cortex area. Percent volume was measured by multiplying the area by the section thickness (2 mm). […] FIGS. 2B and C are graphs showing quantitation of infarct volume. […]
# [7] = test system: GABA (α1β1γ2) currents in oocytes with PKR2; assay: GABA-evoked currents in Xenopus oocytes, two-electrode voltage clamp; format: cell-based, Xenopus laevis; settings: GABA 10 uM; PK2 10 nM-30 nM; over 60 min; holding potential -70 mV
# Method: FIG. 13 is a series of graphical representations showing PK2-induced reduction of GABA (α1β1γ2) currents. […] GABA (10 uM) evoked GABA currents without PK2 show no appreciable reduction over a 70 min course. Addition of PK2 (10 nM-30 nM) decreased GABA-evoked current over a period of 60 min. FIG. 13B is a graphical representation showing the average percent reduction of normalized GABA-evoked currents after addition of PK2. […] One-way Anova with post-Dunnet correction indicates (p<0.05) across all time points when compared to normalized base.
# Multiple studies have found a complex system of inhibition, disinhibition, and various physiological consequences, depending on the circuitry and subtypes involved; all of which have important consequences in epileptogenesis. The role of PK2 and GABAA receptor, especially with the αβγ-GABAA which are found in the amygdale was investigated. […]. To do this study, a mixture of RNA containing α1β1γ2S with or without PKR2 was injected into Xenopus oocytes. GABA currents were then measured using the two-electrode voltage clamp with a holding potential of −70 mV, 4-6 days post injection. Repeated exposure (every 10 mins) with GABA (10 μM) to Xenopus oocytes (αβγ-GABAA or […] containing) induced a reproducible and stable current over a long-term recording (>1 hr).
# T1 sequence (Q8NFJ6 whole entry): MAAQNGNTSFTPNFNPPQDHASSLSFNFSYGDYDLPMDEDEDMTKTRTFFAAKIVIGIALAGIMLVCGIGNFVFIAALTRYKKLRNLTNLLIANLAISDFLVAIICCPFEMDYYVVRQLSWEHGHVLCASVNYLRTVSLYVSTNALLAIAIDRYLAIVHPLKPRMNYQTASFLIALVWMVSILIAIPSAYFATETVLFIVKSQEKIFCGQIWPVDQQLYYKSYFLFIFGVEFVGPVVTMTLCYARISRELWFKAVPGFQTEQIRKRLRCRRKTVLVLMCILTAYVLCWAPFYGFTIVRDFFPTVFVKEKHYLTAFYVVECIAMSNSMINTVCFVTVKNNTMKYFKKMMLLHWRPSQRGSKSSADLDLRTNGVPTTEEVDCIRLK
molecule,measurement,setting,value
"CC(C)CN(Cc1ccc2c(c1)OCCCO2)C(=O)C1CN(Cc2ccccc2)CCO1 (racemic) [Compound I, (±)-4-Benzyl-N-(3,4-dihydro-2H-1,5-benzodioxepin-7-ylmethyl)-N-isobutylmorpholine-2-carboxamide]",brain concentration,[1],significant brain concentration
same,infarct volume versus vehicle PEG400,[2],significantly reduced infarct volume
same,Ki,PKR2,~15 nM
CC[C@@H]1C(=O)OC[C@@H]1Cc1cncn1C [pilocarpine],peak PK2 mRNA induction over basal level,PK2 mRNA [3]; 6 hr post pilocarpine injection,over 100 fold
same,peak PKR2 mRNA induction over basal level,"PKR2 mRNA; CA1/CA2, 6 hr post pilocarpine injection",about 7 fold
"CN1C(=O)CN=C(c2ccccc2)c2cc(Cl)ccc21 [Diazepam, diazepam]",PK2 mRNA induction after pilocarpine in diazepam-pretreated animals,PK2 mRNA [3],eliminated induction; also recorded: blocks induction of PK2
same,PK2 mRNA induction after pilocarpine in diazepam-pretreated animals,PK2 mRNA [3]; listed as diazepam,completely abolished
same,PKR2 mRNA induction after pilocarpine with diazepam,PKR2 mRNA; seizure activity blocked with diazepam,eliminated induction
"C1CCc2nnnn2CC1 [PTZ, Pentylenetetrazol]",PK2 mRNA induction in PTZ seizure model,PK2 mRNA [4],only a modest upregulation of PK2 mRNA at the medial nucleus of the amygdale
B1,duration of inhibitory response in locomotor running wheel activity,[5],3 to 5 h
same,infarct volume versus saline,[6],significantly increased overall average infarct volume
same,maximum inhibition of GABA-evoked currents,[7],75 % of normalized baseline
